Measured values from patent US20030236291A1, “Use of citreamicins” (priority 2000, published 2003).

Assays:
Assay type in all cases: cell-based
[1] = system: P388 (ATCC CCL-46, suspension culture of a lymphoid neoplasm from DBA/2 mouse); assay: In vitro antitumor screening, growth inhibition of P388 cells
Excerpt: (§1) Its antitumor activity has been detected in vitro by culturing the tumor cells following the methodology described by
(§2) (1): Raymond I. Bergeron, Paul F. Cavanaugh, Jr., Steven J. Mine, Robert G. Hughes, Jr., Gary T. Elliot and Carl W. Porter. Antineoplastic and antiherpetic activity of spermidine catecholamide iron chelators. Biochem. Bioph. Res. Comm. 1984, 121(3): 848-854; and
(§3) (2). Alan C. Schroeder, Robert G. Hughes, Jr. and Alexander Bloch. Effects of Acycic Pyrimidine Nucleoside Analoges. J. Med. Chem. 1981, 24:1078-1083.
(§4) Cells were maintained in logarithmic phase of growth in Eagle's Minimum Essential Medium, with Earle's Balanced Salts, with 2.0 mM L-glutamine, with non-essential amino acids, without sodium bicarbonate (EMEM/neaa); supplemented with 10% Fetal Calf Serum (FCS), 10^−2 M sodium bicarbonate and 0.1 g/l penicillin-G +streptomycin sulfate.
A screening procedure has been carried out to determine and compare the antitumor activity of citreamicin CL, using an adapted form of the method described by Bergeron et al. The antitumor cells employed were P388 (ATCC CCL-46, suspension culture of a lymphoid neoplasm from DBA/2 mouse), A549 (ATCC CCL-185, monolayer culture of a human lung carcinoma) and HT-29 (ATCC HTB-38, monolayer culture of a human colon carcinoma). […]

[2] = system: HT-29 (ATCC HTB-38, monolayer culture of a human colon carcinoma); assay: In vitro antitumor screening, growth inhibition of HT-29 cells (Crystal Violet); details: approximate IC50; three days of incubation at 37° C.; Crystal Violet staining; duplicate
Excerpt: as §1, §2, §3
as §4, with “sulfate. […]” for “sulfate.”
(§5) A549 and HT-29 cells were seeded into 16 mm wells at 2×10^4 cells per well in 1 ml aliquots of MEM 1OFCS containing the indicated concentration of drug. […] An approximate IC50 was determined by comparing the growth in wells with drug to the growth in wells control.

[3] = system: A549 (ATCC CCL-185, monolayer culture of a human lung carcinoma); assay: In vitro antitumor screening, growth inhibition of A549 cells (Crystal Violet); details: approximate IC50; three days of incubation at 37° C.; Crystal Violet staining; duplicate
Excerpt: as §1, §2, §3
as §4, with “sulfate. […]” for “sulfate.”
as §5

In the case of `COc1cc2oc3c(c(=O)c2cc1OC)C(=O)c1c(ccc2cc4c(c(O)c12)C(=O)N1C(C)(C4)OC(=O)C1(C)COC(=O)CC(C)C)C3=O` (stereo not drawn) [Citreamicin α, citreamicin α], the IC50 ([1]; approximate IC50, three days of incubation at 37° C., growth in wells with drug vs control wells, duplicate) is reported as 3 nM, the “in vitro antitumor activity” value ([1]; cell line derived from mouse lymphoma) is reported as “exhibits in vitro antitumor activity” and the IC50 [2] is reported as 4 nM. It also gave an IC50 [3] of 4 nM.
